Here are results for 10 compounds from patent US5428021A, “Human leukocyte elastase (HLE) inhibitors, and related pharmaceutical compositions and methods of use” (SRI International, priority 1994, dated 1995).

What all share (type): biochemical
Experiment [1] has as its target T1, Elastase (human neutrophil (HLE)) (Homo sapiens, UniProt P08246).
T1 construct: purchased Calbiochem
T1 sequence (P08246 30-267): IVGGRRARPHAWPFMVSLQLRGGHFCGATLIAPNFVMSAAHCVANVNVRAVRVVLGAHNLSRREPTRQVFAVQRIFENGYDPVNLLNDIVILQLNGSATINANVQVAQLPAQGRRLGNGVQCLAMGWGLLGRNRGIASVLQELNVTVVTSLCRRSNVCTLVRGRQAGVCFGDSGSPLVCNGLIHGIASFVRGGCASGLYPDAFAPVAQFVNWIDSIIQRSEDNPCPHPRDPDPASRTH
Briefly: Inhibition of human leukocyte (neutrophil) elastase, progress curve method (methoxy-Suc-Ala-Ala-Pro-Val-pNA substrate). The settings on record: for Ki / koff / kon: 25 mM HEPES, 1M NaCl, 0.1% BRIJ 35, pH 6.5, 25° C.; for kinact/KI: pH 6.5, read-out: kobs /[I] Enzyme; for kobs /[I] HLE / kobs /[I] Enzyme: relative selectivity, HLE over HLE. The procedure:
(§1) Enzymes and their substrates, listed below, were obtained from Calbiochem.
(§2) Enzyme and substrate concentrations were chosen to obtain pseudo first order conditions for the entire timecourse, with uninhibited enzyme maintaining a constant rate of product formation for longer than the fifteen minute sampling time.
(§3) Additional compounds within the scope of the invention were evaluated using the progress curve method of Stein et al. to determine the kinetic constants kon, koff, as well as the pKi and relative selectivity for HLE over other serine proteases.

Experiment [2] addresses T2, α Chymotrypsin (bovine pancreatic) (Bos taurus, UniProt P00766).
T2 construct: purchased Calbiochem
Briefly: Inhibition of chymotrypsin, progress curve method (Suc-Gly-Gly-Phe-pNA substrate). The following applies: for kinact/KI: pH 7.5, read-out: kobs /[I] Enzyme; for kobs /[I] HLE / kobs /[I] Enzyme: relative selectivity, HLE over Chymotrypsin. The procedure: as §1
Suc--Gly--Gly--Phe--pNA
as §2, §3

Experiment [3] addresses T3, Trypsin (bovine pancreatic) (Bos taurus, UniProt P00760).
T3 construct: purchased Calbiochem
T3 sequence (P00760 24-246): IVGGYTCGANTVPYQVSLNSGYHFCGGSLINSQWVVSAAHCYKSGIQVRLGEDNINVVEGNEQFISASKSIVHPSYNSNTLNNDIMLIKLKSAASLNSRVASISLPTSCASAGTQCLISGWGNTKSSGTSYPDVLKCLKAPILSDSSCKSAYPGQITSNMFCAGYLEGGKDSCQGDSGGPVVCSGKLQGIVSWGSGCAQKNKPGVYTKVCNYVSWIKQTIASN
Briefly: Inhibition of trypsin, progress curve method (Bz-Arg-pNA substrate). The following applies: for kinact/KI: pH 7.5, read-out: kobs /[I] Enzyme; for kobs /[I] HLE / kobs /[I] Enzyme: relative selectivity, HLE over Trypsin. How it is done:
as §1, §2, §3

The target in experiment [4] is T4, Cathepsin-G (human neutrophil) (Homo sapiens, UniProt P08311).
T4 construct: purchased Calbiochem
T4 sequence (P08311 21-255): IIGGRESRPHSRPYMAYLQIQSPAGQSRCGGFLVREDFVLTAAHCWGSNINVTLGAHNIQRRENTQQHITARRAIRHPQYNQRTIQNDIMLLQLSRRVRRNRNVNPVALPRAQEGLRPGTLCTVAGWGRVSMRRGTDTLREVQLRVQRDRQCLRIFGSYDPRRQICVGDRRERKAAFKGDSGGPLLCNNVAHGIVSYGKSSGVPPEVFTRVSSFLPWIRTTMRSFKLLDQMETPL
Description: Inhibition of cathepsin G, progress curve method (Suc-Ala-Ala-Pro-Phe-pNA substrate). The settings on record: for kinact/KI: pH 6.5, read-out: kobs /[I] Enzyme; for kobs /[I] HLE / kobs /[I] Enzyme: relative selectivity, HLE over Cathepsin G. The procedure:
as §1
Cathepsin-G (human neutrophil
Suc--Ala--Ala--Pro--Phe--
as §2, §3

In experiment [5] the target is T5, Elastase (porcine pancreatic) (PPE) (Sus scrofa, UniProt P00772).
T5 construct: purchased Calbiochem
T5 sequence (P00772 27-266): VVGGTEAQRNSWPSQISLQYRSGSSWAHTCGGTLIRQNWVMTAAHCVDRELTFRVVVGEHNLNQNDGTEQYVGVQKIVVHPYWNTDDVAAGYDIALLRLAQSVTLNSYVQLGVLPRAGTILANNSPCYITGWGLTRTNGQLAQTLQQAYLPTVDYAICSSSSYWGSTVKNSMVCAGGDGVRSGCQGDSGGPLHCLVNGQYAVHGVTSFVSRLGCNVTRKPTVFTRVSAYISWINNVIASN
Briefly: Inhibition of porcine pancreatic elastase (PPE), progress curve method (Suc-Ala-Ala-Ala-pNA substrate). The following applies: for kinact/KI: pH 7.5, read-out: kobs /[I] Enzyme; for kobs /[I] HLE / kobs /[I] Enzyme: relative selectivity, HLE over PPE. How it is done:
as §1, §2, §3

A word on the Ki: it is the equilibrium dissociation constant of an inhibitor or competing ligand from its target. Read a high Ki as a looser hold on the target. By koff is commonly meant the first-order rate constant of dissociation. By kon is commonly meant a measure of how fast the partners come together. A low value points to slower complex formation.

In experiment [1] (HLE), `CCOc1nc2ccc(N)c(C)c2c(=O)o1` showed an inhibition constant Ki of 0.0145 nM. In experiment [1] (pH 6.5, HLE), this compound had a dissociation rate constant (koff) of 2.3e-05 s⁻¹ and an association rate constant (kon) of 750000 M⁻¹ s⁻¹.
On to `CCOc1nc2ccc(C(C)NC(=O)[C@@H](NC(=O)OC(C)(C)C)C(C)C)c(C)c2c(=O)o1` (single isomer, unassigned) [7 Isomer A], for which, in experiment [1] (HLE), the inhibitory constant (Ki) was 0.0589 nM and the on-rate constant (kon) is given as 304,000 M^-1 sec^-1. Further, the koff in experiment [1] (pH 6.5, HLE) was found to be 1.8e-05 s⁻¹.
Regarding `CCOc1nc2ccc(C(C)NC(=O)[C@@H](NC(=O)OC(C)(C)C)C(C)C)c(C)c2c(=O)o1` (single isomer, unassigned) [7 Isomer B], the kinact/KI is 2570 M⁻¹ s⁻¹ in experiment [2]; 1550 M⁻¹ s⁻¹ in experiment [3]; 967 M⁻¹ s⁻¹ in experiment [4]; 967 M⁻¹ s⁻¹ in experiment [5]; 1.1e+06 M⁻¹ s⁻¹ in experiment [1]. Also, the “kobs /[I] HLE / kobs /[I] Enzyme” value worked out at 430 in experiment [2]; 710 in experiment [3]; 1140 in experiment [4]; 1140 in experiment [5]; 1 in experiment [1]. In addition, the affinity in experiment [1] (HLE) corresponds to a Ki of 0.0145 nM. In addition, the dissociation rate constant (koff) in experiment [1] (HLE) amounted to 0.000016 s⁻¹. Further, the kon in experiment [1] (HLE) is listed as 1,100,000 M^-1 sec^-1.
As to `CCOc1nc2ccc(NC(=O)CCNC(=O)OC(C)(C)C)c(C)c2c(=O)o1` [Example 2, 6-(N-tert-butyloxycarbonyl-β-alanyl)amino-5-methyl-2-ethoxy-4H-3,1-benzoxazin-4-one], the kinact/KI was 3500 M⁻¹ s⁻¹ in experiment [2]; 200 M⁻¹ s⁻¹ in experiment [3]; 460 M⁻¹ s⁻¹ in experiment [4]; 2860 M⁻¹ s⁻¹ in experiment [5]; 365000 M⁻¹ s⁻¹ in experiment [1]. In addition, the “kobs /[I] HLE / kobs /[I] Enzyme” value in experiment [2] worked out at 100; in experiment [3], 1830; in experiment [4], 790; in experiment [5], 130; in experiment [1], 1. The compound further had a Ki in experiment [1] (HLE) of 1.1 nM. The same compound displayed a dissociation rate constant (koff) in experiment [1] (pH 6.5, HLE) of 0.000404 s⁻¹. Besides, the kon in experiment [1] (pH 6.5, HLE) amounted to 365000 M⁻¹ s⁻¹.
As for `CCOc1nc2ccc(NC(=O)CCN(C)C(=O)OC(C)(C)C)c(C)c2c(=O)o1` [Example 3, 6-(N-tert-butyloxycarbonyl-N-methyl-β-alanyl)-amino-5-methyl-2-ethoxy-3,1-benzoxazin-4-one], the Ki in experiment [1] (HLE) was 1.32 nM. In experiment [1] (pH 6.5, HLE), this compound came in with a koff of 0.00042 s⁻¹ and a kon of 320000 M⁻¹ s⁻¹.
Taken in the same sequence, the figures for `CCOc1nc2ccc(N)c(CC)c2c(=O)o1` [Example 4] were 0.1 nM, 4.7e-05 s⁻¹ and 470000 M⁻¹ s⁻¹.
For the compound `CCOc1nc2ccc(NC(=O)CCN(C)C(=O)OC(C)(C)C)c(CC)c2c(=O)o1` [Example 5, 6-(N-tert-butyloxycarbonyl-N-methyl-β-alanyl)-amino-5-ethyl-2-ethoxy-3,1-benzoxazin-4-one], the inhibition constant Ki in experiment [1] (HLE) is 0.107 nM. In experiment [1] (pH 6.5, HLE), this compound showed a koff of 3e-05 s⁻¹ and a kon of 281000 M⁻¹ s⁻¹.
With `CCOc1nc2ccc(NC(=O)CCN(C)S(=O)(=O)c3ccc(C)cc3)c(CC)c2c(=O)o1` [Example 6, 6-(N-4-methylbenzenesulfonyl-N-methyl-β-alanyl)-amino-5-ethyl-2-ethoxy-4H-3,1-benzoxazin-4-one], the kinact/KI in experiment [2] amounted to 11900 M⁻¹ s⁻¹; in experiment [3], 80 M⁻¹ s⁻¹; in experiment [4], 340 M⁻¹ s⁻¹; in experiment [5], 3450 M⁻¹ s⁻¹; in experiment [1] it was 745000 M⁻¹ s⁻¹. Further, the “kobs /[I] HLE / kobs /[I] Enzyme” value in experiment [2] came out at 60; in experiment [3] it was 9312; in experiment [4], 2190; in experiment [5], 220; in experiment [1], 1. In experiment [1] (HLE), this compound showed an inhibition constant Ki of 0.0933 nM. The koff in experiment [1] (pH 6.5, HLE) stood at 6.9e-05 s⁻¹. In experiment [1] (pH 6.5, HLE), this compound had an association rate constant (kon) of 745000 M⁻¹ s⁻¹.
In experiment [1] (HLE), `CCOc1nc2ccc(C(C)NC(=O)[C@H](C)NC(=O)OC(C)(C)C)c(C)c2c(=O)o1` (stereo partly drawn) [Example 8, 6-[1-(N-tert-butyloxycarbonyl-L-alanyl)-aminoethyl]-2-ethyloxy-5-methyl-4H-3,1-benzoxazin-4-one] gave a Ki of 0.0331 nM. In experiment [1] (pH 6.5, HLE), the off-rate constant (koff) stood at 1.7e-05 s⁻¹ and the on-rate (kon) is 520000 M⁻¹ s⁻¹.
In experiment [1] (HLE), `CCOc1nc2cccc(C)c2c(=O)o1` [positive control, reference compound] showed an inhibition constant Ki of 0.513 nM. In experiment [1] (pH 6.5, HLE), this compound had a koff of 7.2e-05 s⁻¹ and a kon of 140000 M⁻¹ s⁻¹.
